Assay results: ChEMBL document CHEMBL3244029, “Synthesis and stereospecific antipsychotic activity of (-)-1-cyclopropylmethyl-4-(3-trifluoromethylthio-5H-dibenzo[a,d]cyclohepten-5-ylidene)piperidine” (J Med Chem, 1977)
Active and inactive are the calls of the source. No cut-off for these calls is given here.

Tests used:
[1] = system: Saimiri; experiment: Antipsychotic activity in po dosed squirrel monkey assessed as inhibition of conditioned avoidance response measured as maximum number of shocks; assay type: functional; details: Saimiri, in Primates, po; read-out: ED50
[2] = system: Saimiri; experiment: Antipsychotic activity in squirrel monkey assessed as inhibition of conditioned avoidance response measured as maximum number of shocks possible per 30 mins interval at 1 mg/kg, po after 60 to 90 mins dosing; assay type: functional
[3] = system: Saimiri; experiment: Antipsychotic activity in squirrel monkey assessed as inhibition of conditioned avoidance response measured as maximum number of shocks possible per 30 mins interval at 3 mg/kg, po after 120 to 150 mins dosing; assay type: functional
[4] = system: Saimiri; experiment: Antipsychotic activity in squirrel monkey assessed as inhibition of conditioned avoidance response measured as maximum number of shocks possible per 30 mins interval at 3 mg/kg, po after 150 to 180 mins dosing; assay type: functional
[5] = system: Saimiri; experiment: Antipsychotic activity in squirrel monkey assessed as inhibition of conditioned avoidance response measured as maximum number of shocks possible per 30 mins interval at 3 mg/kg, po after 90 to 120 mins dosing; assay type: functional
[6] = system: Saimiri; experiment: Antipsychotic activity in squirrel monkey assessed as inhibition of conditioned avoidance response at 9 mg/kg, po; assay type: functional, organism-based; design: dose 9 mg/kg
[7] = system: Saimiri; experiment: Antipsychotic activity in squirrel monkey assessed as inhibition of conditioned avoidance response measured as maximum number of shocks possible per 30 mins interval at 1 mg/kg, po after 0 to 30 mins dosing; assay type: functional
[8] = system: Saimiri; experiment: Antipsychotic activity in squirrel monkey assessed as inhibition of conditioned avoidance response measured as maximum number of shocks possible per 30 mins interval at 1 mg/kg, po after 30 to 60 mins dosing; assay type: functional
[9] = system: Saimiri; experiment: Antipsychotic activity in squirrel monkey assessed as inhibition of conditioned avoidance response at 27 mg/kg, po; assay type: functional, organism-based; design: dose 27 mg/kg
[10] = system: Mus musculus; experiment: Central anticholinergic activity against physostigmine-induced lethality in Carworth CF1 mouse assessed as animal death at 10 mg/kg, po treated 5 hrs before 1.6 mg/kg, sc physostigmine treatment and 2 mg/kg, ip atropine methyl nitrate treated 0.5 hrs before induction (reference value: 0%); assay type: functional
[11] = system: Mus musculus; experiment: Peripheral anticholinergic activity in po dosed Carworth CF1 mouse assessed as dose required to produce pupil dilation to 1.5 micrometer units in 50% mouse after 2 hrs; assay type: ADME, organism-based; details: in vivo

## CSc1ccc2c(c1)N(CCC1CCCCN1C)c1ccccc1S2.Cl (stereo unspecified) [THIORIDAZINE HYDROCHLORIDE]
[1]
  ED50: 0.97 mg/kg

## CN1CCC(=C2c3ccccc3C=Cc3ccc(SC(F)(F)F)cc32)CC1
[2]
  %max: 8%
[3]
  %max: 100%
[4]
  %max: 100%
[5]
  %max: 77.4%
[6]
  inhibition: inactive
[7]
  %max: 0%
[8]
  %max: 0.66%

## FC(F)(F)Sc1ccc2c(c1)C(=C1CCN(CC3CC3)CC1)c1ccccc1C=C2
[9]
  inhibition: inactive

## CN1CCC(=C2c3ccccc3C=Cc3ccccc32)CC1 [CYPROHEPTADINE]
[10]
  Activity: 0%
[11]
  ED: 6 mg/kg
